Results on 19 compounds are retold here after patent publication US7326732B2, “EP2 receptor agonists” (Pharmagene Laboratories Limited, priority 2004, dated 2008).

Bounds are passed on as bounds.

The target of experiment [1] is T1, human EP2 prostanoid receptors (Homo sapiens, UniProt P43116).
T1 construct: expressed in transfected cells; host or cells: HEK-293
The experiment in a line: Agonist activity at recombinant human EP2 prostanoid receptors (cAMP in HEK-293 clones). The experiment is classed as cell-based. The settings on record: for EC50: HEK-293 stably transfected with human EP2, cAMP accumulation, read-out: pEC50 EP2 (converted); for activity (EP2 part): functional classification at EP2. (In general: Changes in cAMP serve as a functional read-out for many G protein-coupled receptors.)

In experiment [2] the target is T2, human EP4 receptor (Homo sapiens, UniProt P35408).
T2 construct: expressed in transfected cells
T2 sequence (P35408 whole entry): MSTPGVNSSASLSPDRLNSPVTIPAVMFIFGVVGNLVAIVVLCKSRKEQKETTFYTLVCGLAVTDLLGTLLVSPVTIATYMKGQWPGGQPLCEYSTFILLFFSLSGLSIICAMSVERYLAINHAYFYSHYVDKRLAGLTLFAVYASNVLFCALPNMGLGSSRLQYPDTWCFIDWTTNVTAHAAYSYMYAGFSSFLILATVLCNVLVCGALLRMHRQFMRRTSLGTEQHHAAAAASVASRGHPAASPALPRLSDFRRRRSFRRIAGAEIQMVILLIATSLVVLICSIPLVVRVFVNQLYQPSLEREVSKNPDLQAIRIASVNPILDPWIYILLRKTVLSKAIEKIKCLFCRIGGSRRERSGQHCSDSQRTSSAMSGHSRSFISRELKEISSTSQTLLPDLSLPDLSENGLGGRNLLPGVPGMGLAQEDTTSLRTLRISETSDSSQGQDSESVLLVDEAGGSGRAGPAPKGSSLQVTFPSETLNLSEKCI
The experiment in a line: Binding ability to human EP receptors ([3H]PGE2 displacement), EP4. As to conditions: membranes expressing human EP4; [3H]PGE2 1 nM; Cheng-Prusoff; read-out: pKi (M) EP4 (converted). The procedure, abridged:
(§1)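 Membranes from cells stably expressing human EP2, EP3 or EP4 incubated to equilibrium with [3H]PGE2 and compound at 0.1 to 10 000 nM. Non-specific binding defined with 10 uM PGE2; bound label separated by vacuum filtration and quantified by scintillation counting.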

Experiment [3] concerns the target T3, human EP3 receptor (Homo sapiens, UniProt P43115).
T3 construct: expressed in transfected cells
T3 sequence (P43115 1-390): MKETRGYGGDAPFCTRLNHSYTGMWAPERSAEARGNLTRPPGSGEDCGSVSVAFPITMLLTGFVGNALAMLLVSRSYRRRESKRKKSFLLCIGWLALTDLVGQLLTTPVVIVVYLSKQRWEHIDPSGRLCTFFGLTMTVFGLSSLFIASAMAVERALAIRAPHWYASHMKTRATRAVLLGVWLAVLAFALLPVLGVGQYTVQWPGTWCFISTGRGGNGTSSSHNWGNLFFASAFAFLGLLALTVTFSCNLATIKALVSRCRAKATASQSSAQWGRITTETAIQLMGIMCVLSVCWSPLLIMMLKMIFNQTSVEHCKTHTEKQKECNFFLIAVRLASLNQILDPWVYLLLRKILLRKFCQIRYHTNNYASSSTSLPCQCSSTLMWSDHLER
The experiment in a line: Binding ability to human EP receptors ([3H]PGE2 displacement), EP3. The settings on record: membranes expressing human EP3; [3H]PGE2 2.5 nM; Cheng-Prusoff; read-out: pKi (M) EP3 (converted). The essentials: as §1

Experiment [4] concerns the target T4, human EP2 receptor (Homo sapiens, UniProt P43116).
T4 construct: expressed in transfected cells
The experiment in a line: Binding ability to human EP receptors ([3H]PGE2 displacement), EP2. As to conditions: membranes expressing human EP2; [3H]PGE2 3 nM; Cheng-Prusoff; read-out: pKi (M) EP2 (converted). The procedure, abridged: as §1

T4 sequence (P43116 whole entry): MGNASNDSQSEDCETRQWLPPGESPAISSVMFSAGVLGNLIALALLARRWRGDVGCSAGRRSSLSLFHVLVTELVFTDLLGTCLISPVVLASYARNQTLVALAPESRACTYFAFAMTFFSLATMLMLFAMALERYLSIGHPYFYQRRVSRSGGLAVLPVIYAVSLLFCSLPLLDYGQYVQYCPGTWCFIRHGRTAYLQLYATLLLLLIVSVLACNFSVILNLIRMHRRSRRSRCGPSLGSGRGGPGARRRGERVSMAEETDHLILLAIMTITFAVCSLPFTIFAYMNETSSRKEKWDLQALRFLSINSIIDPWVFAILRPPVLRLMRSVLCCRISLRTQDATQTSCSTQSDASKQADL
T1 sequence (P43116 whole entry): as above

With `O=C(O)/C=C/c1cccc(NC(=O)c2cccc(-c3ccc(Cl)cc3)n2)c1` [Compound 151, 3-(3-{[6-(4-Chloro-phenyl)-pyridine-2-carbonyl]-amino}-phenyl)-acrylic acid], the EC50 in experiment [1] is less than 0.1 µM. The “activity (EP2 part)” value in experiment [1] is “EP2 Agonist”. In addition, the Ki in experiment [2] is more than 1e-05 M; in experiment [3], more than 1e-05 M; in experiment [4], less than 1e-07 M.

On to `O=C(O)Cc1cccc(NC(=O)c2cccc(-c3ccc(F)cc3)n2)c1` [Compound 153, (3-{[6-(4-Fluoro-phenyl)-pyridine-2-carbonyl]-amino}-phenyl)-acetic acid], for which the EC50 in experiment [1] was less than 0.1 µM. Besides, the “activity (EP2 part)” value in experiment [1] was “EP2 Agonist”. Further, the Ki in experiment [2] is more than 1e-05 M; in experiment [3] it was more than 1e-05 M; in experiment [4], less than 1e-07 M.

Regarding `O=C(O)COc1cccc(NC(=O)c2cccc(-c3ccc(Cl)cc3)n2)c1` [Compound 154, (3-{[6-(4-Chloro-phenyl)-pyridine-2-carbonyl]-amino}-phenoxy)-acetic acid], the EC50 in experiment [1] was less than 0.1 µM. In addition, in experiment [1], the “activity (EP2 part)” value is reported as “EP2 Agonist”. Also, the Ki is more than 1e-05 M in experiment [2], more than 1e-05 M in experiment [3] and less than 1e-07 M in experiment [4].

In the case of `O=C(O)/C=C/c1cccc(NC(=O)c2cccc(-c3ccc(F)cc3)n2)c1` [Compound 155, 3-(3-{[6-(4-Fluoro-phenyl)-pyridine-2-carbonyl]-amino}-phenyl)-acrylic acid], the EC50 in experiment [1] is less than 0.1 µM. Also, in experiment [1], the “activity (EP2 part)” value is given as “EP2 Agonist”. Further, the Ki in experiment [2] is more than 1e-05 M; in experiment [3], more than 1e-05 M; in experiment [4] it was less than 1e-07 M.

With `O=C(O)COc1cccc(NC(=O)c2ccc(-c3ccc(Cl)cc3)o2)c1` [Compound 156, (3-{[5-(4-Chloro-phenyl)-furan-2-carbonyl]-amino}-phenoxy)-acetic acid], in experiment [1], the EC50 was less than 0.1 µM. For the same compound, in experiment [1], the “activity (EP2 part)” value is “EP2 Agonist”. The Ki in experiment [2] was more than 1e-05 M; in experiment [3] it was more than 1e-05 M; in experiment [4], less than 1e-07 M.

Regarding `O=C(O)COc1cccc(NC(=O)c2ccc(-c3ccc(F)cc3)o2)c1` [Compound 157, (3-{[5-(4-Fluoro-phenyl)-furan-2-carbonyl]-amino}-phenoxy)-acetic acid], the EC50 in experiment [1] was less than 0.1 µM. Also, the “activity (EP2 part)” value in experiment [1] was “EP2 Agonist”. The figures for the Ki in experiment [2], in experiment [3] and in experiment [4] were more than 1e-05 M, more than 1e-05 M and less than 1e-07 M, respectively.

Take `O=C(O)COc1cccc(NC(=O)c2cccc(-c3ccc(F)cc3)n2)c1` [Compound 158, (3-{[6-(4-Fluoro-phenyl)-pyridine-2-carbonyl]-amino}-phenoxy)-acetic acid]: in experiment [1], the EC50 is less than 0.1 µM. For the same compound, in experiment [1], the “activity (EP2 part)” value is recorded as “EP2 Agonist”. Moreover, the Ki in experiment [2] is less than 1e-06 M; in experiment [3], more than 1e-05 M; in experiment [4], less than 1e-07 M.

As to `O=C(O)CCc1cccc(NC(=O)c2cccc(-c3ccc(F)cc3)n2)c1` [Compound 159, 3-(3-{[6-(4-Fluoro-phenyl)-pyridine-2-carbonyl]amino}-phenyl)-propionic acid], the EC50 in experiment [1] is less than 0.1 µM. In experiment [1], the “activity (EP2 part)” value was “EP2 Agonist”. Also, the Ki in experiment [2] is more than 1e-05 M; in experiment [3], more than 1e-05 M; in experiment [4], less than 1e-07 M.

Turning to `O=C(O)COc1cccc(NC(=O)c2ccc(-c3ccccc3)o2)c1` [Compound 160, {3-[(5-Phenyl-furan-2-carbonyl)-amino]-phenoxy}-acetic acid], the EC50 in experiment [1] is less than 0.1 µM. The “activity (EP2 part)” value in experiment [1] is reported as “EP2 Agonist”. The Ki in experiment [2] is more than 1e-05 M; in experiment [3] it was more than 1e-05 M; in experiment [4], less than 1e-07 M.

As to `O=C(O)CCc1cccc(NC(=O)c2cccc(-c3cccc(F)c3)n2)c1` [Compound 162, 3-(3-{[6-(3-Fluoro-phenyl)-pyridine-2-carbonyl]-amino}-phenyl)-propionic acid], in experiment [1], the EC50 is less than 0.1 µM. For the same compound, in experiment [1], the “activity (EP2 part)” value is recorded as “EP2 Agonist”. Also, the Ki in experiment [2] was more than 1e-05 M; in experiment [3], more than 1e-05 M; in experiment [4] it was less than 1e-07 M.

With `O=C(O)CCc1cccc(NC(=O)c2ccc(-c3cccc(F)c3)o2)c1` [Compound 163, 3-(3-{[5-(3-Fluoro-phenyl)-furan-2-carbonyl]-amino}-phenyl)-propionic acid], in experiment [1], the EC50 was less than 0.1 µM. Also, the “activity (EP2 part)” value in experiment [1] is given as “EP2 Agonist”. In addition, the values for the Ki in experiment [2], in experiment [3] and in experiment [4] were more than 1e-05 M, more than 1e-05 M and less than 1e-07 M, respectively.

For `O=C(O)CCc1cccc(NC(=O)c2cccc(-c3ccccc3)n2)c1` [Compound 164, 3-{3-[(6-Phenyl-pyridine-2-carbonyl)-amino]-phenyl}-propionic acid], the EC50 in experiment [1] was less than 0.1 µM. The “activity (EP2 part)” value in experiment [1] is reported as “EP2 Agonist”. For the same compound, the Ki in experiment [2] was more than 1e-05 M; in experiment [3], more than 1e-05 M; in experiment [4] it was less than 1e-06 M.

Turning to `O=C(O)COc1cccc(NC(=O)c2cc(-c3ccccc3)ccc2F)c1` [Compound 165], in experiment [1], the EC50 is less than 0.1 µM. The “activity (EP2 part)” value in experiment [1] was “EP2 Agonist”. Further, the Ki was more than 1e-05 M in experiment [2], more than 1e-05 M in experiment [3] and less than 1e-07 M in experiment [4].

For `O=C(O)COc1cccc(NC(=O)c2ccc(-c3cccc(F)c3)o2)c1` [Compound 168, (3-{[5-(3-Fluoro-phenyl)-furan-2-carbonyl]-amino}-phenoxy)-acetic acid], in experiment [1], the EC50 is less than 0.1 µM. In addition, the “activity (EP2 part)” value in experiment [1] is “EP2 Agonist”. Further, the Ki in experiment [2] is more than 1e-05 M; in experiment [3], more than 1e-05 M; in experiment [4], less than 1e-07 M.

With `O=C(O)COc1cccc(NC(=O)c2cc(-c3cccc(F)c3)ccc2F)c1` [Compound 169, {3-[(4,3′-Difluoro-biphenyl-3-carbonyl)-amino]-phenoxy}-acetic acid], the EC50 in experiment [1] was less than 0.1 µM. Besides, the “activity (EP2 part)” value in experiment [1] was “EP2 Agonist”. The Ki in experiment [2] was more than 1e-05 M; in experiment [3], more than 1e-05 M; in experiment [4], less than 1e-07 M.

Regarding `O=C(O)COc1cccc(NC(=O)c2cccc(-c3cccc(F)c3)n2)c1` [Compound 170, (3-{[6-(3-Fluoro-phenyl)-pyridine-2-carbonyl]-amino}-phenoxy)-acetic acid], the EC50 in experiment [1] is less than 0.1 µM. In addition, the “activity (EP2 part)” value in experiment [1] is on record as “EP2 Agonist”. The figures for the Ki in experiment [2], in experiment [3] and in experiment [4] were less than 1e-06 M, more than 1e-05 M and less than 1e-07 M, respectively.

With `O=C(O)COc1cccc(NC(=O)c2cc(-c3ccc(F)cc3)ccc2F)c1` [Compound 171, {3-[(4,4′-Difluoro-biphenyl-3-carbonyl)-amino]-phenoxy}-acetic acid], the EC50 in experiment [1] is less than 0.1 µM. Further, in experiment [1], the “activity (EP2 part)” value is listed as “EP2 Agonist”. Besides, the Ki in experiment [2] was more than 1e-05 M; in experiment [3] it was more than 1e-05 M; in experiment [4], less than 1e-07 M.

As for `O=C(Nc1cccc(OCc2nnn[nH]2)c1)c1ccc(-c2ccccc2)o1` [Compound 173, 5-Phenyl-furan-2-carboxylic acid [3-(1H-tetrazol-5-ylmethoxy)-phenyl]-amide], the EC50 in experiment [1] was less than 0.1 µM. The “activity (EP2 part)” value in experiment [1] is reported as “EP2 Agonist”. Moreover, the Ki in experiment [2] was more than 1e-05 M; in experiment [3] it was more than 1e-05 M; in experiment [4] it was less than 1e-06 M.

As for `O=C(Nc1cccc(-c2nnn[nH]2)c1)c1ccc(-c2ccccc2)o1` [Compound 177, 5-Phenyl-furan-2-carboxylic acid [3-(1H-tetrazol-5-yl)-phenyl]-amide], the EC50 in experiment [1] is less than 1 µM. For the same compound, in experiment [1], the “activity (EP2 part)” value is on record as “EP2 Agonist”. The Ki in experiment [2] is more than 1e-05 M; in experiment [3], more than 1e-05 M; in experiment [4], less than 1e-06 M.
